Holding throughout (assay type): biochemical
For one assay, the target named is T1, mouse 11β-HSD1 (Mus musculus, UniProt P50172).
T1 construct: expressed in transfected cells
Put plainly: Enzyme inhibitory activity assay, lysate of CHO-K1 cells stably expressing mouse 11β-HSD1, cortisol by competitive ELISA. To be noted: Table 2; cell lysate, 100 nmol/L cortisone, NADPH, 37° C. 1 hour; read-out: in vitro assay (IC50 uM) m HSD1.

The next assay addresses T2, human 11β-HSD2 (Homo sapiens, UniProt P80365).
T2 construct: expressed in transfected cells
T2 sequence (P80365 1-405): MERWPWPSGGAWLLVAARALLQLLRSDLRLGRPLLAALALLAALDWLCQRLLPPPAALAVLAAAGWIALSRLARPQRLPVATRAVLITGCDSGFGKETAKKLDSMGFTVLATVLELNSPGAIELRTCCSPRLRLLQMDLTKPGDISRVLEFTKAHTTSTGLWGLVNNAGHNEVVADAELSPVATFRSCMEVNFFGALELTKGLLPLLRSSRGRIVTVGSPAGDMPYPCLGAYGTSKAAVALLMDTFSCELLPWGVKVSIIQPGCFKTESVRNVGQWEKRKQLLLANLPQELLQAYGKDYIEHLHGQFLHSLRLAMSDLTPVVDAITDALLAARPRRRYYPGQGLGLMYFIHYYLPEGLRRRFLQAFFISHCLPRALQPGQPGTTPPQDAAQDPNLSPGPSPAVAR
Put plainly: Enzyme inhibitory activity assay, lysate of HEK293 cells stably expressing human 11β-HSD2, cortisol by competitive ELISA. The settings on record: Table 1; cell lysate, 100 nmol/L cortisol, NAD+, 37° C. 1 hour; read-out: in vitro assay (IC50 uM) h HSD2. As for the experimental part:
1. Human 11β-HSD1-, Human 11β-HSD2- and Mouse 11β-HSD1-Gene Clonings and Establishment of Stably Expressing Cells
Human 11β-HSD1-, human 11β-HSD2-, and mouse 11β-HSD1-gene clonings were conducted using as a template a reverse transcription product of human-liver RNA, human-kidney RNA (CELL APPLICATIONS), and mouse-kidney RNA respectively, by means of PCR cloning with reference to nucleotide sequences of Genbank Accession Nos. NM_005525, NM_000196, and NM_008288. The obtained PCR products of about 0.9 kbp, 1.2 kbp, and 0.9 kbp were subcloned into an expression vector pcDNA3.1+/Zeo (Invitrogen).
Human 11β-HSD1- and human 11β-HSD2-expressing vectors were transfected into human kidney-derived cell line, HEK293 cells, using a transfection reagent, jet PEI (Funakoshi). Mouse 11β-HSD1 was transfected to Chinese hamster ovary-derived cell line, CHO-K1 cells. Selection was conducted with 200-400 μg/mL of zeocine (Invitrogen) to provide stably expressing-cell clones. The stably expressing cells were suspended in buffer solution A (20 mmol/L Tris-HCl, pH 7.4, 250 mmol/L sucrose, 1 mmol/L EGTA, 1 mmol/L EDTA, 1 mmol/L MgCl2), sonicated, and then stored at −80° C.
2. Assay of Enzyme Inhibitory Activity
An enzymatic reaction was conducted using a polystyrene 96-well plate. Each well was added with 1 μL of a test agent dissolved in DMSO and then diluted (0.003 to 3 mmol/L), and further added with 10 μL of cell lysate diluted to a concentration of 0.1 mg/mL to 0.4 mg/mL. Next, 90 μL of buffer solution A containing substrate (100 nmol/L cortisone or cortisol) and coenzyme (400 μmol/L NADPH or NAD+) was added and the mixture was incubated at 37° C. for 1 hour. The enzymatic reaction was stopped by treating at 95° C. for 3 minutes. Cortisol that was present in the reaction solution was determined by a competitive ELISA shown below.
Anti-rabbit IgG antibody (Chemi-con) diluted to 2 μg/mL with carbonate buffer solution (pH 9.6) was added in 100 μL each to a 96-well immuno plate (Nunc) and immobilized by an incubation at 4° C. overnight. 50 μL of enzymatic reaction solution was put onto the plates, and further, anti-cortisol antibody (Cosmo Bio) and HRP-labeled cortisol (Cosmo Bio), diluted with buffer solution B (25 mmol/L Tris-HCl pH 7.4, 137 mmol/L NaCl, 2.68 mmol/L KCl), were added in 50 μL respectively and incubated at 4° C. overnight. After washed three times with buffer solution B containing 0.05% Tween 20, the plates were allowed to develop color by adding 100 μL, of color reagent, TMB (Moss). The color reaction was stopped by 25 μL of 1 mol/L sulfuric acid and the absorbance was determined at 450 nm with a microplate reader (Molecular Device, VersaMax).
The values of human 11β-HSD1, human 11β-HSD2, and mouse 11β-HSD1 activities were subtracted from 100, and the resultant values were regarded as the respective 11βHSD inhibition rates of example compounds. […] The comparison of human 11β-HSD1 and human 11β-HSD2 inhibiting activities is shown in Table 1, and the comparison of human 11β-HSD1 and mouse 11β-HSD1 inhibiting activities is shown in Table 2.

Another assay concerns the target T3, human 11β-HSD1 (Homo sapiens, UniProt P28845).
T3 construct: expressed in transfected cells
Kind of assay: Enzyme inhibitory activity assay, lysate of HEK293 cells stably expressing human 11β-HSD1, cortisol by competitive ELISA. The settings on record: Table 1; cell lysate, 100 nmol/L cortisone, NADPH, 37° C. 1 hour; read-out: in vitro assay (IC50 uM) h HSD1.

T3 sequence (P28845 whole entry): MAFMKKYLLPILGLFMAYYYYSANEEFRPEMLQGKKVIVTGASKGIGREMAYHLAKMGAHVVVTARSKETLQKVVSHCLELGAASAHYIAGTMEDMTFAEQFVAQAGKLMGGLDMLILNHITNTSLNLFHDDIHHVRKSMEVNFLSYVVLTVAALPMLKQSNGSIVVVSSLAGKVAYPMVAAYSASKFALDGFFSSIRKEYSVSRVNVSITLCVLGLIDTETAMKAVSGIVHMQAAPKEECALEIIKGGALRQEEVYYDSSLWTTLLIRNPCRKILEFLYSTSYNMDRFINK
T1 sequence (P50172 whole entry): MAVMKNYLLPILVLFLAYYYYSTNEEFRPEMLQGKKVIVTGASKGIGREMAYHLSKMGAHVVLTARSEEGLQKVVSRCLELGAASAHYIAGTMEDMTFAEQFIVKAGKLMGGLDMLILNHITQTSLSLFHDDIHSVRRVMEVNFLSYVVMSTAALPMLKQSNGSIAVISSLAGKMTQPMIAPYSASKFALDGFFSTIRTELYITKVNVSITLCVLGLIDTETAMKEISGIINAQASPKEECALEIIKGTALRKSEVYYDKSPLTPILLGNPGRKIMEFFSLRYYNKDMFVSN

As to `CC1(C)C(=O)N(C2C3CC4CC(C3)CC2C4)C1c1ccccc1F` (stereo not drawn) [Example 39, 1-(adamantan-2-yl)-3,3-dimethyl-4-(2-fluorophenyl)azetidin-2-one], the values for the IC50 at mouse 11β-HSD1, at human 11β-HSD2 and at human 11β-HSD1 were 0.055 µM, 3 to 30 µM and 0.0034 µM, respectively.
`COc1ccc(C2N(C3C4CC5CC(C4)CC3C5)C(=O)C2(C)C)c(F)c1` (stereo not drawn) [Example 40, 1-(adamantan-2-yl)-3,3-dimethyl-4-(2-fluoro-4-methoxyphenyl)azetidin-2-one]: the IC50 is 0.34 µM at mouse 11β-HSD1, over 30 µM on human 11β-HSD2 and 0.0059 µM on human 11β-HSD1.
With `CC1(C)C(=O)N(C2C3CC4CC(C3)CC2C4)C1c1ccccc1C(F)(F)F` (stereo not drawn) [Example 41, 1-(adamantan-2-yl)-3,3-dimethyl-4-(2-trifluoromethylphenyl)azetidin-2-one], the results for the concentration for half-maximal inhibition (IC50) at mouse 11β-HSD1, on human 11β-HSD2 and at human 11β-HSD1 were 0.079 µM, 3 to 30 µM and 0.0087 µM, respectively.
The matching figures for `CC1(C)C(=O)N(C2C3CC4CC(C3)CC2C4)C1c1ccccc1Cl` (stereo not drawn) [Example 44, 1-(adamantan-2-yl)-3,3-dimethyl-4-(2-chlorophenyl)azetidin-2-one]: 0.076 µM, 3 to 30 µM and 0.0055 µM.
With `COc1ccc(C2N(C3C4CC5CC(C4)CC3C5)C(=O)C2(C)C)c(C)c1` (stereo not drawn) [Example 56, 1-(adamantan-2-yl)-3,3-dimethyl-4-(4-methoxy-2-methylphenyl)azetidin-2-one], the values for the IC50 at mouse 11β-HSD1, at human 11β-HSD2 and on human 11β-HSD1 were 0.46 µM, over 30 µM and 0.0079 µM, respectively.
The matching figures for `CC1(C)C(=O)N(C2C3CC4CC(C3)CC2C4)C1c1cccc2c1OCCCC2` (stereo not drawn) [Example 68, 1-(adamantan-2-yl)-3,3-dimethyl-4-(benzo[b]oxepan-9-yl)azetidin-2-one]: 0.02 µM, 3 to 30 µM and 0.026 µM.
As for `CC1(C)C(=O)N(C2C3CC4CC(C3)CC2C4)C1Cc1ccccc1` (stereo not drawn) [Example 69, 4-benzyl-1-(adamantan-2-yl)-3,3-dimethylazetidin-2-one], the IC50 came to 0.0051 µM at mouse 11β-HSD1, 0.28 µM at human 11β-HSD2 and 0.02 µM on human 11β-HSD1.
In the same order, the values of `CC1(C)C(=O)N(C2C3CC4CC(C3)CC2C4)C1C1(c2ccc(Cl)cc2)CC1` (stereo not drawn) [Example 70, 4-[1-(4-chlorophenyl)cyclopropyl]-1-(adamantan-2-yl)-3,3-dimethylazetidin-2-one] are 0.0078 µM, 4.1 µM and 0.11 µM.
Turning to `CC1(C)C(=O)N(C2C3CC4CC(C3)CC2C4)C1C1(c2ccccc2)CC1` (stereo not drawn) [Example 71, 1-(adamantan-2-yl)-3,3-dimethyl-4-(1-phenylcyclopropyl)azetidin-2-one], the IC50 was determined as 0.0061 µM at mouse 11β-HSD1, 4.3 µM at human 11β-HSD2 and 0.059 µM at human 11β-HSD1.

For the origin of these results see patent US8236789B2, “1-adamantyl azetidin-2-one derivatives and drugs containing same” (Kowa Company, Ltd., priority 2008, dated 2012).
